“Also recorded” adds a separate entry of the source.
Tests used:
[1] = system: C3 activation on the platelet surface; assay: iC3b ELISA of antibody-sensitized human platelets in normal human serum; type: cell-based
Protocol: For experiments sensitizing platelets with human anti-platelet antibody, purified platelets were treated with 4% ITP sera for 15 minutes at 30° C. before adding 2% normal human complement sufficient sera and incubating for 30 minutes at 37° C. For samples containing PIC1, sera and PIC1 were pre-incubated for 5 minutes before combining with sensitized platelets. Samples were then spun and supernatant was removed for C5a analysis by ELISA. A C5a ELISA kit (R&D Systems) was used per manufacturer's instructions. The cells were washed once with GVBS^−− and once with water to lyse the platelets. The remaining cell pellet was treated with 25 mM methylamine for 1 hour at 37° C., spun, and the supernatant was analyzed for iC3b by ELISA. The ELISA for iC3b was performed as previously described, utilizing a goat anti-human C3 antibody (Complement Technology, Tyler, Tex.) for capture, a mouse anti-human iC3b antibody (Quidel, San Diego, Calif.) for probing, and a goat anti-mouse HRP (Sigma-Aldrich, St Louis, Mo.) for detection.
Human platelets were incubated with sensitizing antibody, NHS, or both. […] Complement attack of the platelets and cell viability were assayed. C3 is the central component of the complement activation cascades. The C3 fragment iC3b is an opsonin that contributes to phagocytosis. […]

[2] = system: transfused human platelets; assay: human platelets transfused into Wistar rats (platelet refractoriness model); type: in vivo, Wistar rat
Protocol: Male Wistar rats approximately 16 weeks old and 250 grams in weight were purchased (Hilltop Scottdale, Pa.) with indwelling intra jugular catheters in place. Rats were sedated with ketamine and acepromazine throughout the course of the experiment with monitoring of vital signs. PIC1 infusions were performed 30 seconds prior to transfusion with PKH26 stained human platelets. Blood samples were collected into K2EDTA microtainer tubes (BD, Franklin Lakes, N.J., USA) from the animals prior to transfusion and then at 0.5, 2, 5, 20, 60 and 120 min after transfusion. Upon completion of the final blood draw, the animals were euthanized using Fatal Plus (Vortech Pharmaceuticals, Dearborn, Mich., USA). A necropsy was completed after euthanasia to collect organs for histopathology.
Flow cytometry was performed using a FACSCalibur flow cytometer (Becton Dickinson, Franklin Lakes, N.J., USA) with DXP 8 Color 488/637/407 upgrade (Cytek Development, Freemont, Calif., USA). The data was acquired using Cytek FlowJo CE version 7.5.110.7. Prior to analysis on the flow cytometry machine, whole rat blood was spun at 500×g for 5 min. The plasma platelet layer was removed and then diluted 1:10 with PBS. Approximately 20,000 events selected for platelet size were run on the […]. Data was analyzed using FlowJo V10.4.2 (FlowJo LLC, Ashland, Oreg., USA).
The unstained native rat platelets are to the left of the vertical line, and the stained transfused platelets are to the right. […] This difference is not noticeable at two minutes.
Total platelet counts for rats transfused with unstained platelets treated with PIC1 or saline control (as shown in FIG. 12B) were evaluated in order to evaluate if similar trends could be determined for unstained platelets. Platelet counts were measured for each blood sample by Antech Diagnostics (Chesapeake, Va.). Decreases in platelet counts were calculated for each time point compared with the maximal platelet count immediately after transfusion at 30 seconds.

[3] = system: Wistar rat sera complement-mediated killing of human platelets; assay: viability of human platelets in Wistar rat sera (Presto Blue); type: cell-based; conditions: increasing concentrations, vs platelets in normal rat sera, P<0.017, FIG. 7C
Protocol: For experiments using rat sera, purified platelets were incubated with 5% Wistar rat sera at different time points (5 min, 20 min and 60 min) in a 37° C. bath. Thereafter, GVBS^−− was added to the mixture and this was spun at 500 g for 5 min at 22° C. After resuspending with 250 ul of PBS, PrestoBlue was added to the cells at a 1:10 dilution and incubated in a 37° C. water bath for 30 min. The cells were then plated and read on a microplate reader at 530 nm. With the addition of PIC1 to sera, there was a preincubation time of 5 minutes before addition of platelets.
In order to evaluate the extent to which rat sera killing of human platelets is mediated by the classical pathway of complement, we utilized PA-dPEG24.

Substance: H2N-IALILEPICCQERAA-dPEG24 (H-IALILEPICCQERAA-dPEG24; cysteine pairing not given here) [PA-dPEG24, 15-amino acid PEGylated peptide, 24 PEG moieties at the C-terminus]
- iC3b bound to platelets ([1]; 0.8 mM): level similar to that of the background level measured for sensitizing antibody alone
- iC3b opsonization of platelets, dose response ([1]; sensitizing antibody and NHS, increasing concentrations, FIG. 6A): decreased iC3b opsonization of the platelets in a dose-dependent manner
- increase in transfused platelets compared with control ([2]; 160 mg/kg infused 30 seconds before transfusion, 0.5 minutes after transfusion, P=0.05, FIG. 12A): 2 fold
- stained transfused platelets, representative flow cytometry ([2]; 160 mg/kg, 0.5 minutes after transfusion, vs vehicle, FIG. 11): increased numbers of stained transfused platelets
- amount of transfused platelets compared with control ([2]; 160 mg/kg, later time points than 0.5 minutes): no significant difference in the amount of transfused platelets
- decrease in total platelet count relative to 30 seconds after transfusion ([2]; unstained platelets, two minutes (P=0.04) and 20 minutes (P=0.03), FIG. 12B): Statistically significant greater decreases in the platelet count were found for saline-treated versus PA-dPEG24-treated animals
- viability of human platelets in rat sera [3]: dose-dependent improvement in platelet viability; also recorded: improved survival for human platelets in rat sera for all doses tested compared to control

Source: patent US20220096592A1, “PIC1 VARIANTS WITH IMPROVED SOLUBILITY AND METHODS OF USING THE SAME” (priority 2019, published 2022)
